Patent US20250345332A1, “APROCITENTAN FOR THE TREATMENT OF HYPERTENSION” (IDORSIA PHARMACEUTICALS LTD, priority 2022, published 2025)
“Also recorded” adds a separate entry of the source. Where two headings read alike, the source gives them in different places.

Legend:
[1] = test system: subjects having essential hypertension; settings: cited from earlier work
[2] = test system: patients with resistant hypertension; assay: PRECISION phase 3 trial: trough unattended automated office blood pressure (uAOBP); type: in vivo, human; settings: for office SBP at 4 weeks, difference versus placebo (SE): part 1 (primary endpoint); for least square mean (SE) change in office SBP at 4 weeks: part 1, on standardized background therapy; for office DBP decrease compared with placebo: week 4, part 1
Description: (§1) A single, randomized study with three sequential treatment parts was designed. The study design addressed both the 4-week placebo-controlled efficacy of 12.5 and 25 mg aprocitentan (Part 1) and the durability of its effects in long-term active treatment with 25 mg aprocitentan for a further 32 weeks (Part 2) followed by a 12-week placebo-controlled withdrawal period with patients re-randomized to 25 mg or placebo (Part 3) (see for example Danaietash P et al; Identifying and treating resistant hypertension in PRECISION—a randomized long-term clinical trial with Aprocitentan. J Clin Hypertension 2022 (in press). Patients with uncontrolled BP (measured as unattended automated office BP) despite the use of three or more antihypertensive medications for at least 1 year were screened. They were switched to a single-tablet triple fixed combination antihypertensive therapy for at least 4 weeks before entering a single-blind placebo run-in period. The 4-week placebo run-in period further excluded placebo responders. The randomization period consisted of 3 sequential parts: • 1) a 4-week double-blind part with aprocitentan 12.5 mg, 25 mg, or placebo (1:1:1 ratio); • 2) a 32-week single-blind part with aprocitentan 25 mg; and • 3) a 12-week randomized withdrawal part with aprocitentan 25 mg or placebo (1:1 ratio).
The standardized byckground treatment (SBT) is a single-tablet triple fixed combination of a CCB (amlodipine), an ARB (valsartan), and a diuretic (hydrochlorothiazide); two dose strengths are available: 5/160/25 mg and 10/160/25 mg, respectively. The maximum tolerated dose strength is selected at the investigator's discretion during the treatment period of the study and must be kept stable for at least 1 week prior to randomization continuing through the end of the DB part and again during the DB-WD part. Patients who are treated with a β-blocker at screening will continue their treatment throughout the study.
Study treatment and SBT are to be taken every morning except on the morning of study visit days, where treatment is administered after the completion of the visit assessments and the measurement of BP.
Trough uAOBP is measured at each visit with the same automated oscillometric sphygmomanometer (Microlife® WatchBP Office), which records 5 sitting BP readings (one per minute, first value excluded from the average), with the patient resting undisturbed, alone (unattended) in a quiet place for 5 minutes.
(§2) • Part 1: Double-blind, randomized parallel-group and placebo-controlled and lasts for 4 weeks. Subjects received (1:1:1 ratio), 25 or 12.5 mg aprocitentan, or placebo. • Part 2: Single-blind and single-arm, lasts for 32 weeks. All subjects received aprocitentan 25 mg. • Part 3: Double-blind withdrawal. All subjects completing part 2 and entering part 3 are re-randomized (1:1 ratio) to either aprocitentan 25 mg or placebo.
The primary efficacy endpoint is the change from baseline to Week 4 of DB treatment in mean trough SiSBP measured as uAOBP, where baseline is defined as the last available measurement before the start of DB treatment. […]
(§3) Other secondary efficacy endpoints include • changes from baseline to Week 4 and from DB-WD baseline to Week 40 in mean trough sitting diastolic blood pressure (SiDBP) measured as uAOBP. • and changes in systolic/diastolic BP measured by ABPM, including changes from baseline to Week 4 of DB treatment in 24-h mean SBP and DBP, changes from baseline to Week 4 in daytime and night-time mean SBP and DBP, changes from DB-WD baseline (Week 36) to Week 40 in 24-h mean SBP and DBP, and changes from DB-WD baseline (Week 36) to Week 40 in daytime and night-time mean SBP and DBP.

[3] = test system: patients with resistant hypertension; assay: PRECISION phase 3 trial: ambulatory blood pressure monitoring (ABPM); type: in vivo, human; settings: for 24 h ambulatory DBP, placebo-corrected decrease / 24 h ambulatory SBP, placebo-corrected decrease: end of part 1 (week 4)
Description: as §1
ABPM is performed over a 24-hour period with the Mobil-O-Graph NG device at baseline, and Weeks 4, 36, and 40. Systolic BP and diastolic BP are measured every 20 minutes from 06:00-23:00 and every 30 minutes from 23:00-06:00. Monitoring is initiated between 06:00 and 11:00.
as §2, §3

[4] = in comparison to corresponding alkylated derivatives; cited from earlier work
[5] = test system: patients with resistant hypertension; assay: PRECISION phase 3 trial: urine albumin-creatinine ratio (UACR); type: in vivo, human
Description: as §1, §2
In a population with difficult-to control hypertension (mean age of 62 years, obesity [69.3% of subjects], >50% with diabetes mellitus, 22% with CKD stage 3-4), evaluation of UACR is important. […] The geometric mean UACR at baseline was 26.6 mg/g in the overall population. At Week 4, placebo-corrected reductions in UACR of 30% and 34% with aprocitentan 12.5 mg and 25 mg were noted, respectively.

[6] = subjects with CKD stage 3-4, baseline to Week 4
[7] = Black or African Americans, baseline to Week 4
[8] = part 3, after 4 weeks of withdrawal (week 40), aprocitentan 25 mg

NS(=O)(=O)Nc1ncnc(OCCOc2ncc(Br)cn2)c1-c1ccc(Br)cc1 [aprocitentan, {5-(4-bromo-phenyl)-6-[2-(5-bromo-pyrimidin-2-yloxy)-ethoxy]-pyrimidin-4-yl}-sulfamide]
tolerability ([1]; across all four doses (5, 10, 25, 50 mg)): well tolerated
cases of increased liver enzymes above three times the upper limit of the normal range ([1]; aprocitentan 5 mg group): one
cases of peripheral edema ([1]; aprocitentan 25 mg group): two
cases of peripheral edema ([1]; aprocitentan 50 mg group): two
mean body weight change from baseline ([1]; aprocitentan 5 and (10) mg groups): remained unchanged
mean body weight increase from baseline ([1]; aprocitentan 25 and 50 mg groups): 0.4 kg
office SBP at 4 weeks, difference versus placebo (SE) ([2]; aprocitentan 12.5 mg): statistically significant and clinically meaningful reduction
least square mean (SE) change in office SBP at 4 weeks ([2]; aprocitentan 12.5 mg): −15.3 (0.9) mm Hg
office DBP decrease compared with placebo ([2]; aprocitentan 12.5 mg): −3.9 mm Hg
office blood pressure reduction from baseline during part 2 ([2]; aprocitentan 25 mg, 32-week single-blind part 2, patients previously on aprocitentan): maintained
office SBP at 4 weeks, difference versus placebo (SE) ([2]; aprocitentan 25 mg): statistically significant and clinically meaningful reduction
least square mean (SE) change in office SBP at 4 weeks ([2]; aprocitentan 25 mg): −15.2 (0.9) mm Hg
office DBP decrease compared with placebo ([2]; aprocitentan 25 mg): −4.5 mm Hg
office DBP increase with placebo compared with aprocitentan ([2]; part 3, after 4 weeks of withdrawal, aprocitentan 25 mg): 5.2 mm Hg
difference 25 mg versus 12.5 mg in LS mean reduction, primary endpoint SiSBP [2, 6]: up to −5.88 mmHg
further decrease in SiSBP with 25 mg compared with 12.5 mg [2, 6]: 44%
difference 25 mg versus 12.5 mg in LS mean BP reduction with ABPM (night-time SBP) [3, 7]: up to −5.90 mmHg
further decrease in night-time SBP with 25 mg compared to 12.5 mg [3, 7]: > 100%
24 h ambulatory DBP, placebo-corrected decrease ([3]; aprocitentan 12.5 mg): −4.3 mm Hg
24 h ambulatory SBP, placebo-corrected decrease ([3]; aprocitentan 12.5 mg): −4.2 mm Hg
placebo-corrected SBP lowering effect during the daytime ([3]; aprocitentan 12.5 mg, week 4): −3.8 mm Hg
placebo-corrected SBP lowering effect during the night time ([3]; aprocitentan 12.5 mg, week 4): −5.1 mm Hg
24 h ambulatory DBP, placebo-corrected decrease ([3]; aprocitentan 25 mg): −5.8 mm Hg
24 h ambulatory SBP, placebo-corrected decrease ([3]; aprocitentan 25 mg): −5.9 mm Hg
placebo-corrected SBP lowering effect during the daytime ([3]; aprocitentan 25 mg, week 4): −5.3 mm Hg
24 h ambulatory DBP increase with placebo compared with aprocitentan [3, 8]: 6.8 mm Hg
24 h ambulatory SBP increase with placebo compared with aprocitentan [3, 8]: 6.5 mm Hg
clearance in vivo [4]: much shorter
half-life in vivo [4]: much longer
reduction in UACR ([5]; aprocitentan 12.5 mg, subjects with CKD stage 3-4): −26%
reduction in UACR ([5]; aprocitentan 12.5 mg, subjects with baseline microalbuminuria): −43%
UACR reduction during part 2 ([5]; aprocitentan 25 mg, single-blind part 2): maintained; also recorded: sustained
reduction in UACR ([5]; aprocitentan 25 mg, subjects with CKD stage 3-4): −45%
reduction in UACR ([5]; aprocitentan 25 mg, subjects with baseline microalbuminuria): −45%
antiproteinuric effect (UACR change) ([5]; patients with chronic kidney disease stage 3-4): −46%
antiproteinuric effect (UACR change) ([5]; patients with eGFR of 60 mL/min per 1.73 m^2 or higher): −26%
antiproteinuric effect ([5]; preliminary data, subjects with SGLT-2 inhibitor plus standardized antihypertensive background therapy, small sample size): improved antiproteinuric effect
